Test results as given in patent publication US4851426A, “Ethoxycarbonyloxy ethyl esters of non-steroidal anti-inflammatory carboxylic acids and pharmaceutical compositions thereof” (Teva Pharmaceutical Industries, Ltd., priority 1982, dated 1989).

Legend:
[1] = tested on: inflamed foot of the rat (brewers' yeast); test: Analgesic action, pressure reaction threshold of yeast-inflamed foot (Basile-Analgesy-Meter); assay type: in vivo; set-up: % of control 1 hr / % of control 3 hrs: concentration or dose not given beside the values; settings: for % effect vs. parent compound 1 hr / % effect vs. parent compound 3 hrs: relative to parent; for % of control 1 hr / % of control 3 hrs: pressure reaction threshold, rat, oral
Text: Male rats, weighing 95-140 g, 10 rats per experimental group. The major reason for selecting rats of this weight range is the ease in handling smaller sized animals in this particular test. Animals are fed and provided drinking water ad libitium until time of testing. […] (Note: Brewers' yeast, locally obtainable from "Abir" breweries, may be kept under refrigeration for a period of at least 6 months). […] This instrument is basically a device which […] force that increases at a constant rate (a certain number of grams per second). […] Note: In case weight discs are being used to increase the force of pressure applied, the same number of discs should be employed throughout the entire experiment for both experimental and control animals. For detailed operation of the analgesy-meter reference to the specific instructions of the instrument given in the appendix. a. […] The differences in the various Mean Group Values between treatment and control group are analyzed for statistical significance using the Student t-Test.

Ulcerogenicity = assay type: in vivo, rat; set-up: key to UI max: ulcer index = mean sum of individual lesion lengths per rat; settings: rat, in vivo; dose causing UI50; female rats, oral, 5 hours; read-out: UD50
Procedure: (§1) Methods: Six groups of 10 female Charles River rats weighing 170-230 g were used for each drug. […] Drugs were freshly suspended in water with 1% carboxymethyl cellulose and administered by stomach tube. Rats treated were sacrificed 5 hours after oral gavage. Ulcers were evaluated under a magnifying lens, after the stomach had been dissected out, opened along the lesser curvature and rinsed.
(§2) Ulcer index (UI) for each group was calculated as the mean sum of the lengths of the individual lesions in each rat.
(§3) Apparent maximal ulcerogenicity was calculated from regression analysis of the ascending parts of each dose-response curve.

stomach ulcers in rats = test: Ulcerogenicity; assay type: in vivo, rat; set-up: key to UI max: ulcer index = mean sum of individual lesion lengths per rat; settings: for UI50: 50% of ulcerogenic index max, + on value: dose response curve acquired bell shape
Procedure: as §1, §2, §3

[2] = hydrolysis in aqueous acidic medium (simulated gastro-intestinal juices), HPLC; assay type: physicochemical; settings: for Ester (%): 0 min; for Ester (%), in words: same acidic conditions, 37° C.; for stability of ECOE ester against hydrolysis in acidic medium: acidic medium (simulated gastric juice)
Procedure: The rates of hydrolysis of 2-(acetyloxy)benzoic acid (Aspirin) ethoxy carbonyloxy ethyl ester to salicylethoxy carbonyloxy ethyl ester in the aqueous acidic medium (simulated gastro-intestinal juices) were determined by dissolving the ester to a pre-determined concentration in the acidic medium containing THF: aqueous conc. HCl=1:1 and the rate of hydrolysis at 37° C. was measured by the HPLC method.
The rates of hydrolysis of acetyl salicylic acid ethoxy carbonyloxy ethyl ester to salicyl-ethoxy carbonyloxy ethyl ester in aqueous acidic system (simulated gastrointestinal juices) are given in the following table:
Ethoxy carbonyloxy ethyl ester of Aspirin was dissolved to a predetermined concentration in an acidic aqueous medium (simulated gastric juice)--mixture THF; aqueous conc. HCl (1:1) and the rate of hydrolysis at 37° C. was measured by HPLC method.

[3] = Bioavailability-pharmacokinetic profile in rats (plasma salicylate, fluorometry); assay type: in vivo; settings: in words, rat
Procedure: Methods: Female Charles River rats weighing 200-250 g were used. Rates were starved for a 24 hour period prior to each experiment, while water was allowed ad libitum. […] Plasma salicylate concentrations were measured by fluorometry according to Frey and El-Sayed (Arch. Int. Pharmacodyn. 230: 300, 1977). […] Statistical evaluation was effected by (unpaired) Student t test.

[4] = dose causing max ulcerogenic index
[5] = dose-response of ulcer index, female rats, oral, 5 hours
[6] = THF: aqueous conc. HCl 1:1, 37° C.

Row | Structure (SMILES) | % effect vs. parent compound 1 hr [1] | % effect vs. parent compound 3 hrs [1] | % of control 1 hr [1] | % of control 3 hrs [1] | TD50 at 5 h (Ulcerogenicity) | UI50 (stomach ulcers in rats) | UD max (stomach ulcers in rats; [4]) | Slope (stomach ulcers in rats; [5]) | UI max (stomach ulcers in rats; ulcerogenic index max) | UD max (stomach ulcers in rats; rat, in vivo) | UI max (stomach ulcers in rats; rat, in vivo) | Slope (stomach ulcers in rats; rat, in vivo, po) | further results
1 | CCOC(=O)OC(C)OC(=O)C(C)c1ccc2cc(OC)ccc2c1 (single isomer, unassigned; (+)) [Naproxen-ECOE ester, (+)-6-Methoxy-α-methyl-2-naphthaleneacetic acid 1'-ethoxycarbonyloxy ethyl ester] | 108% | 91% | 125% | 121% | 590 µmol/kg | 32.5 | 1.0 mmol/kg | 63.5 ± 0.59 Uxkg/mmole | 65.0 |  |  |  | 
2 | CCOC(=O)OC(C)OC(=O)c1ccccc1O (stereo not shown) [1'-ethoxy carbonyloxy ethyl ester of salicyclic acid] |  |  |  |  |  |  |  |  |  |  |  |  | Ester (%) [2, 6]: 100%; Ester (%), in words ([2]; 150 min): unchanged; Ester (%), in words ([2]; 180 min): unchanged; Ester (%), in words ([2]; 210 min): unchanged; Ester (%), in words ([2]; 240 min): unchanged; stability of ECOE ester against hydrolysis in acidic medium ([2]; in words, listed as 1'-ethoxycarbonyloxy ethyl ester of salicylic acid): stable in acidic medium; stability of ECOE ester against hydrolysis in acidic medium ([2]; in words, listed as Salicyl 2-ethoxy carbonyloxy ethyl ester): stable; stability of ECOE ester against hydrolysis in acidic medium ([2]; in words, listed as salicyclic acid 2-ethoxycarbonyloxy ethyl ester): stable
3 | CC(=O)Oc1ccccc1C(=O)O [Aspirin, 2-(acetyloxy)benzoic acid, reference compound] |  |  | 126% | 100% | 20 µmol/kg |  |  |  |  | 0.4 mmol/kg | 92.6 | 33.7 ± 11.5 Uxkg/mmole | 
4 | CCOC(=O)OC(C)OC(=O)c1ccccc1OC(C)=O (stereo not shown) [Aspirin-ECOE ester, 1'-ethoxy carbonyloxy ethyl ester of 2-(acetyloxy)benzoic acid (Aspirin)] | 141% | 150% | 178% | 148% | 20 µmol/kg | 20.5 | 0.4 mmol/kg | 13.7 ± 6.5 Uxkg/mmole | 40.9 |  |  |  | bioavailability of salicylate ([3]; oral 0.4 mmole/kg): seems complete; rate of appearance of salicylate ([3]; oral, vs plain aspirin): seems slower; Ester (%) [2, 6]: 100%; remaining at 0.5 h ([2]; 30 min, THF: aqueous conc. HCl 1:1, 37° C., read-out: Ester (%)): 96%; remaining at 1 h ([2]; 60 min, THF: aqueous conc. HCl 1:1, 37° C., read-out: Ester (%)): 92%; remaining at 1.5 h ([2]; 90 min, THF: aqueous conc. HCl 1:1, 37° C., read-out: Ester (%)): 90%; remaining at 2 h ([2]; 120 min, THF: aqueous conc. HCl 1:1, 37° C., read-out: Ester (%)): 90%; remaining at 2.5 h ([2]; 150 min, THF: aqueous conc. HCl 1:1, 37° C., read-out: Ester (%)): 84%; remaining at 3 h ([2]; 180 min, THF: aqueous conc. HCl 1:1, 37° C., read-out: Ester (%)): 82%; remaining at 3.5 h ([2]; 210 min, THF: aqueous conc. HCl 1:1, 37° C., read-out: Ester (%)): 76%; hydrolysis of acetyl group in acidic medium ([2]; in words, acetyl group, simulated gastric juices): readily hydrolysed off; stability of ECOE ester against hydrolysis in acidic medium ([2]; in words): not readily hydrolysed off; ulcerogenicity compared with parent (stomach ulcers in rats; in words, vs parent acid): much smaller ulcerogenic liability
5 | O=C(O)Cc1ccccc1Nc1c(Cl)cccc1Cl [Diclofenac, reference compound] |  |  |  |  |  |  |  |  |  | 0.6 mmol/kg | 61.8 | 31.1 ± 8.7 Uxkg/mmole | 
6 | CCOC(=O)OC(C)OC(=O)Cc1ccccc1Nc1c(Cl)cccc1Cl (stereo not shown) [Diclofenac-ECOE ester] | 86% | 82% | 106% | 110% |  |  | 0.6 mmol/kg | 21.1 Uxkg/mmole | 34.9 |  |  |  | 
7 | CC(C)Cc1ccc(C(C)C(=O)O)cc1 (stereo not shown) [Ibuprofen, reference compound] |  |  | 152% | 145% | 325 µmol/kg |  |  |  |  | 2.8 mmol/kg | 52.0 | 38.1 ± 8.0 Uxkg/mmole | 
8 | CCOC(=O)OC(C)OC(=O)C(C)c1ccc(CC(C)C)cc1 (stereo not drawn) [Ibuprofen-ECOE ester, α-Methyl-4-(2-methylpropyl)benzene--acetic acid 1'-ethoxycarbonyloxy ethyl ester] | 115% | 89% | 176% | 129% | 300 µmol/kg | 13.0 | 0.7 mmol/kg | 36.7 ± 8.5 Uxkg/mmole | 26.0 |  |  |  | 
9 | COc1ccc2c(c1)c(CC(=O)O)c(C)n2C(=O)c1ccc(Cl)cc1 [Indomethacin, reference compound] |  |  | 128% | 146% |  |  |  |  |  | 0.32 mmol/kg | 60 | 50 Uxkg/mmole | 
10 | CCOC(=O)OC(C)OC(=O)Cc1c(C)n(C(=O)c2ccc(Cl)cc2)c2ccc(OC)cc12 (stereo not shown) [Indomethacin-ECOE ester, 1-(p-Chlorobenzoyl)-5-methoxy-2-methylindole-3-acetic acid 1'-ethoxycarbonyloxy ethyl ester] | 102% | 105% | 130% | 153% |  |  | 0.32 mmol/kg | 34 ± 13.8 Uxkg/mmole | 42.0 |  |  |  | 
11 | COc1ccc2cc([C@H](C)C(=O)O)ccc2c1 [Naproxen, reference compound] |  |  | 116% | 133% |  | 31.0 | 2.0 mmol/kg | 41.0 ± 14.2 Uxkg/mmole | 62.0 |  |  |  | 
